Test results from US4213895A, “N-[N-[N-[ N-[N-(5-Oxo-L-prolyl)-L-histidyl]-L-tryptophyl]-L-seryl]-L-tyrosyl]glycin e azide, an intermediate of the releasing agent of luteinizing hormone (LW) and of follicle stimulating hormone (FSH)” (American Home Products Corporation, priority 1979, dated 1980).

Legend:
[1] = test system: induction of ovulation in the rat; assay: Induction of ovulation in the rat, modification of the assay of Arimura et al., Endocrinology 80, 515; assay type: in vivo; conditions: acid addition salt
Text: (§1) Exp. Biol. Med., 128, 807 (1968).

[2] = test system: induction of ovulation in the hamster; assay: Induction of ovulation in the hamster (Arimura et al., Science 174, 511); assay type: in vivo; conditions: acid addition salt
Text: as §1

LH- and FSH-releasing [3] = assay: LH- and FSH-releasing activity, radioimmunoassay described by Niswender et al.; conditions: acid addition salt
Text: as §1

LH- and FSH-releasing [4] = assay: Bioassays, not specified, comparison with the natural hormone; conditions: diacetate salt
Text: Said last-named compound (VI) is condensed by means of the azide method via the azide, N-[N-[N-[N-[N-(5-oxo-L-prolyl)-L-histidyl]-L-tryptophyl]-L-seryl]-L-tyrosyl]glycine azide, with N-[N-[N-(N-leucyl)-L-arginyl]-L-prolyl]glycinamide diacetate (V) to yield the desired decapeptide 5-oxo-L-prolyl-L-histidyl-L-tryptophyl-L-seryl-L-tyrosylglycyl-L-leucyl-L- arginyl-L-prolylglycinamide (I) which is isolated in the form of its diacetate salt. The latter salt may be converted, if desired, into a different acid addition salt, e.g. a salt with a pharmaceutically acceptable acid, by treatment with the appropriate ion exchange resin in the manner described by Boissonas et al., Helv. Chim. Acta 43, 1349 (1960). Suitable ion exchange resins are strongly basic anion exchange resins, for example those listed in Greenstein and Winitz "Chemistry of the Amino Acids", Hohn Wiley and Sons, Inc., New York and London 1961, Vol. 2, p. 1456. Basically substituted cross-linked polystyrene resins such as Amerlite IRA-400 or IRA-410 are preferred. The above diacetate may also be converted to a salt of low solubility in body fluids by treatment with a slightly water-soluble pharmaceutically acceptable acid. The acid addition salts of the LH- and FSH-releasing hormone produced by the process of this invention with pharmacologically acceptable acids are biologically fully equivalent to the natural hormone. […]

## CC(C)C[C@H](NC(=O)CNC(=O)[C@H](Cc1ccc(O)cc1)NC(=O)[C@H](CO)NC(=O)[C@H](Cc1c[nH]c2ccccc12)NC(=O)[C@H](Cc1c[nH]cn1)NC(=O)[C@@H]1CCC(=O)N1)C(=O)N[C@@H](CCCNC(=N)N)C(=O)N1CCC[C@H]1C(=O)NCC(N)=O [I, 5-oxo-L-prolyl-L-histidyl-L-tryptophyl-L-seryl-L-tyrosylglycyl-L-leucyl-L-arginyl-L-prolylglycinamide]
[1]
  activity in induction of ovulation relative to the natural hormone: equally active
[2]
  activity in induction of ovulation relative to the natural hormone: equally active
LH- and FSH-releasing [3]
  LH- and FSH-releasing activity relative to the natural hormone: as active as the natural hormone
LH- and FSH-releasing [4]
  potency in bioassays relative to the natural product: as potent as the latter
